Experimental data taken from PubChem BioAssay AID264 (DTP/NCI, 2004).
Where “and” joins values, the source holds several entries; their conditions need not be identical. Equal values may be shown once. Results filed as inconclusive are left out.

System: nude mice, LX-1 lung xenograft intrarenal, tumor weight T/C
Assay: NCI In Vivo Anticancer Drug Screen. Data for tumor model Human Lung LX-1 Xenograft (intrarenal inoculation) in NU/NU Swiss (nude) mice
Details: endpoint: mean tumor weight change, higher = larger tumour
Method: The antitumor activity of compounds was measured in mice bearing transplantable tumors. Survival or tumor size were measured and the results are expressed as the measurement made in the treated group (T) divided by the measurement made in the vehicle treated control group (C). The tumor model used in this assay is Human Lung LX-1 Xenograft (intrarenal inoculation) in NU/NU Swiss (nude) mice

[1] = dose: 12.5 mg/kg/injection, schedule: Q01DX010 (sc), vehicle: saline with Tween-80
[2] = dose: 50.0 mg/kg/injection, schedule: Q01DX010 (sc), vehicle: saline with Tween-80

For `CCOC(=O)C(CC(C)C)NC(=O)C(Cc1ccc(N(CCCl)CCCl)cc1)NC(C)=O` (centres undefined), the T/C [1] was 51 % of control, the T/C (dose: 25.0 mg/kg/injection, schedule: Q01DX010 (sc), vehicle: saline with Tween-80) was 37 % of control and the T/C [2] was 28 % of control.
`O=C(N/N=C\c1cc(Br)cc(Br)c1O)N/N=C/c1cc(Br)cc(Br)c1O` was tested, and the T/C [2] was 373 % of control and the T/C (dose: 800.0 mg/kg/injection, schedule: Q01DX010 (sc), vehicle: saline with Tween-80) was 67 % of control.
`Clc1ccc2nnnn2n1` was tested, and the T/C (dose: 50.0 mg/kg/injection, schedule: Q04DX003 (sc), vehicle: saline with Tween-80) was 72 % of control, the T/C (dose: 100.0 mg/kg/injection, schedule: Q04DX003 (sc), vehicle: saline with Tween-80) was 88 % of control and the T/C (dose: 200.0 mg/kg/injection, schedule: Q04DX003 (sc), vehicle: saline with Tween-80) was 85 % of control. For the same compound, the T/C (dose: 400.0 mg/kg/injection, schedule: Q04DX003 (sc), vehicle: saline with Tween-80) was 93 % of control.
In the case of `O=C(O)CSc1nc(-c2ccccc2)c(-c2ccccc2)n1-c1ccccn1`, the T/C (dose: 50.0 mg/kg/injection, schedule: Q01DX010 (sc), vehicle: water) is reported as 94 % of control and the T/C (dose: 100.0 mg/kg/injection, schedule: Q01DX010 (sc), vehicle: water) is reported as 60 % of control.
In the case of `CCCCCC[C@H]([C@H](C)O)n1cnc2c(N)ncnc21`, the T/C (dose: 100.0 mg/kg/injection, schedule: Q01DX010 (sc), vehicle: Klucel (hydroxypropylcellulose) (HPC)) is reported as 52 % of control and the T/C (dose: 200.0 mg/kg/injection, schedule: Q01DX010 (sc), vehicle: Klucel (hydroxypropylcellulose) (HPC)) is reported as 34 % of control.
With `COc1ccc(CC2C(=O)NC(C)C(=O)N(C)C3C(=O)N(C)C(Cc4ccc(O)c(c4)Oc4ccc(cc4)C3O)C(=O)NC(C)C(=O)NC(C)C(=O)N2C)cc1` (centres undefined) the T/C (dose: 0.5 mg/kg/injection, schedule: Q01DX010 (sc), vehicle: saline with Tween-80) was 69 % of control, the T/C (dose: 1.0 mg/kg/injection, schedule: Q01DX010 (sc), vehicle: saline with Tween-80) was 85 % of control and the T/C (dose: 2.0 mg/kg/injection, schedule: Q01DX010 (sc), vehicle: saline with Tween-80) was 96 % of control. The T/C (dose: 4.0 mg/kg/injection, schedule: Q01DX010 (sc), vehicle: saline with Tween-80) was 40 % of control.
With `O=C(O)C1CC1.[Ag]` the T/C (dose: 37.5 mg/kg/injection, schedule: Q04DX003 (sc), vehicle: saline with Tween-80) was 63 % of control, the T/C (dose: 75.0 mg/kg/injection, schedule: Q04DX003 (sc), vehicle: saline with Tween-80) was 57 % of control and the T/C (dose: 150.0 mg/kg/injection, schedule: Q04DX003 (sc), vehicle: saline with Tween-80) was 62 % of control. The T/C (dose: 300.0 mg/kg/injection, schedule: Q04DX003 (sc), vehicle: saline with Tween-80) was 54 % of control.
`C1CC[N-]CC1.C1CC[N-]CC1.C1CC[N-]CC1.[Cl][Rh]([Cl])[Cl]` was tested, and the T/C (dose: 75.0 mg/kg/injection, schedule: Q04DX003 (sc), vehicle: saline) was 78 % of control and the T/C (dose: 150.0 mg/kg/injection, schedule: Q04DX003 (sc), vehicle: saline) was 87 % of control.
`COc1c(O)c2c(c3cc(C(=O)N4CCc5c4c(O)c(OC)c4[nH]c(C(=O)N6CC7CC78C6=CC(=O)c6[nH]cc(C)c68)cc54)[nH]c13)CCN2C(N)=O` (centres undefined) was tested, and the T/C (dose: 6.25 micrograms/kg/injection, schedule: Q01DX010 (sc), vehicle: DMSO) was 121 % of control, the T/C (dose: 12.5 micrograms/kg/injection, schedule: Q01DX010 (sc), vehicle: DMSO) was 107 % of control and the T/C (dose: 25.0 micrograms/kg/injection, schedule: Q01DX010 (sc), vehicle: DMSO) was 68 % of control. For the same compound, the T/C (dose: 50.0 micrograms/kg/injection, schedule: Q01DX010 (sc), vehicle: DMSO) was 66 % of control.
`C[N+](C)(C)c1ncnc2nc[nH]c12` was tested, and the T/C (dose: 50.0 mg/kg/injection, schedule: Q01DX010 (sc), vehicle: saline) was 78 % of control, the T/C (dose: 100.0 mg/kg/injection, schedule: Q01DX010 (sc), vehicle: saline) was 116 % of control and the T/C (dose: 200.0 mg/kg/injection, schedule: Q01DX010 (sc), vehicle: saline) was 58 % of control.
For `S=c1nc[nH]c2nc[nH]c12`, the T/C (dose: 6.25 mg/kg/injection, schedule: Q01DX010 (sc), vehicle: Klucel (hydroxypropylcellulose) (HPC)) was 120 % of control and the T/C (dose: 50.0 mg/kg/injection, schedule: Q01DX010 (sc), vehicle: Klucel (hydroxypropylcellulose) (HPC)) was 51 % of control and 55 % of control.
With `C=C1CC2(OC1=O)C(=O)N(C)c1ccc(I)cc12` (centres undefined) the T/C (dose: 150.0 mg/kg/injection, schedule: Q04DX003 (sc), vehicle: suspension in saline) was 68 % of control, the T/C (dose: 300.0 mg/kg/injection, schedule: Q04DX003 (sc), vehicle: suspension in saline) was 34 % of control and the T/C (dose: 600.0 mg/kg/injection, schedule: Q04DX003 (sc), vehicle: suspension in saline) was 34 % of control. For the same compound, the T/C (dose: 1200.0 mg/kg/injection, schedule: Q04DX003 (sc), vehicle: suspension in saline) was 62 % of control.
`C=C(C)C(=O)OC1C/C(CO)=C\C(O)C/C(C)=C/C2OC(=O)C(=C)C21` (centres undefined) was tested, and the T/C (dose: 20.0 mg/kg/injection, schedule: Q04DX003 (sc), vehicle: saline + alcohol) was 96 % of control, the T/C (dose: 40.0 mg/kg/injection, schedule: Q04DX003 (sc), vehicle: saline + alcohol) was 119 % of control and the T/C (dose: 80.0 mg/kg/injection, schedule: Q04DX003 (sc), vehicle: saline + alcohol) was 104 % of control. The T/C (dose: 160.0 mg/kg/injection, schedule: Q04DX003 (sc), vehicle: saline + alcohol) was 107 % of control.
`COc1cccc2c1C(=O)c1c(O)c3c(c(O)c1C2=O)C[C@@](O)(C(C)=O)C[C@@H]3OC1CC(N)C(O)C(C)O1` (some centres undefined) was tested, and the T/C (dose: 0.5 mg/kg/injection, schedule: Q01DX010 (sc), vehicle: saline) was 45 % of control, the T/C (dose: 1.0 mg/kg/injection, schedule: Q01DX010 (sc), vehicle: saline) was 12 % of control and the T/C (dose: 2.0 mg/kg/injection, schedule: Q01DX010 (sc), vehicle: saline) was 19 % of control. For the same compound, the T/C (dose: 4.0 mg/kg/injection, schedule: Q01DX010 (sc), vehicle: saline) was 21 % of control.
`CC[N+](CC)(CC)CC` was tested, and the T/C (dose: 1.5 mg/kg/injection, schedule: Q01DX010 (sc), vehicle: saline with Tween-80) was 88 % of control and the T/C (dose: 12.0 mg/kg/injection, schedule: Q01DX010 (sc), vehicle: saline with Tween-80) was 25 % of control and 49 % of control.
With `O=c1[nH]cc(F)c(=O)[nH]1` the T/C (dose: 5.0 mg/kg/injection, schedule: Q01DX010 (sc), vehicle: saline) was 107 % of control, the T/C (dose: 20.0 mg/kg/injection, schedule: Q01DX010 (sc), vehicle: saline) was 56 % of control and the T/C (dose: 40.0 mg/kg/injection, schedule: Q01DX010 (sc), vehicle: saline) was 25 % of control.
In the case of `O=C1C2CC=CCC2C(=O)N1SC(Cl)(Cl)Cl` (centres undefined), the T/C (dose: 6.25 mg/kg/injection, schedule: Q01DX010 (sc), vehicle: saline with Tween-80) is reported as 102 % of control, the T/C [1] is reported as 56 % of control and the T/C [2] is reported as 64 % of control and 86 % of control. The T/C (dose: 100.0 mg/kg/injection, schedule: Q01DX010 (sc), vehicle: saline with Tween-80) was 76 % of control and the T/C (dose: 200.0 mg/kg/injection, schedule: Q01DX010 (sc), vehicle: saline with Tween-80) was 97 % of control.
